Where a SMILES comes first, the peptide text is derived from it. Bridges are numbered along the chain shown (N, C = ends). The star is where a group is joined. Propionyl = CCC(=O)*
Test system: serum calcium concentration
Protocol: Biological Assay of Calcitonin Analogs in Vivo
The biological potency of [N-alpha-Propionyl, 8-glycine, des-19-leucine] salmon calcitonin was determined by comparing the reduction of serum calcium concentration which followed administration by graded doses of [N-alpha-Propionyl, Gly^8, des-Leu^19 ]-SCT and synthetic salmon calcitonin standard. Rats were divided into four groups of seven animals, and each group was assigend at random to a dose of standard or test solution. Low and high doses were chosen from the linear portion of the dose-response curve. For the salmon calcitonin standard, the values were 0.7 and 2.1 ng. peptide/100 g. BW. Peptides were given by subcutaneous injection (0.2 ml/100 g. BW) and blood was withdrawn 1 hour later for serum calcium determination. Sera are processed and analyzed within two hours of collection.

Q: Which biological potency (rat, in vivo, sc) does the source give for `CCC(=O)N[C@H]1CSSC[C@@H](C(=O)NCC(=O)N[C@@H](CC(C)C)C(=O)NCC(=O)N[C@@H](CCCCN)C(=O)N[C@@H](CC(C)C)C(=O)N[C@@H](CO)C(=O)N[C@@H](CCC(N)=O)C(=O)N[C@@H](CCC(=O)O)C(=O)N[C@@H](CC(C)C)C(=O)N[C@@H](Cc2c[nH]cn2)C(=O)N[C@@H](CCCCN)C(=O)N[C@@H](CCC(N)=O)C(=O)N[C@H](C(=O)N[C@@H](Cc2ccc(O)cc2)C(=O)N2CCC[C@H]2C(=O)N[C@@H](CCCNC(=N)N)C(=O)N[C@H](C(=O)N[C@@H](CC(N)=O)C(=O)N[C@H](C(=O)NCC(=O)N[C@@H](CO)C(=O)NCC(=O)N[C@H](C(=O)N2CCC[C@H]2C(N)=O)[C@@H](C)O)[C@@H](C)O)[C@@H](C)O)[C@@H](C)O)NC(=O)[C@H]([C@@H](C)O)NC(=O)[C@H](CO)NC(=O)[C@H](CC(C)C)NC(=O)[C@H](CC(N)=O)NC(=O)[C@H](CO)NC1=O` [[N alpha-propionyl, 8-glycine, des-19-leucine] salmon calcitonin] (Propionyl-CSNLSTCGLGKLSQELHKQTYPRTNTGSGTP-NH2; disulfide 1-7) here?
A: 9,700 IU/mg

Q: For `CC(C)C[C@H](NC(=O)[C@H](CCCCN)NC(=O)CNC(=O)[C@H](CC(C)C)NC(=O)[C@@H](NC(=O)[C@@H]1CSSC[C@H](N)C(=O)N[C@@H](CO)C(=O)N[C@@H](CC(N)=O)C(=O)N[C@@H](CC(C)C)C(=O)N[C@@H](CO)C(=O)N[C@@H]([C@@H](C)O)C(=O)N1)C(C)C)C(=O)N[C@@H](CO)C(=O)N[C@@H](CCC(N)=O)C(=O)N[C@@H](CCC(=O)O)C(=O)N[C@@H](CC(C)C)C(=O)N[C@@H](Cc1c[nH]cn1)C(=O)N[C@@H](CCCCN)C(=O)N[C@@H](CC(C)C)C(=O)N[C@@H](CCC(N)=O)C(=O)N[C@H](C(=O)N[C@@H](Cc1ccc(O)cc1)C(=O)N1CCC[C@H]1C(=O)N[C@@H](CCCNC(=N)N)C(=O)N[C@H](C(=O)N[C@@H](CC(N)=O)C(=O)N[C@H](C(=O)NCC(=O)N[C@@H](CO)C(=O)NCC(=O)N[C@H](C(=O)N1CCC[C@H]1C(N)=O)[C@@H](C)O)[C@@H](C)O)[C@@H](C)O)[C@@H](C)O` [standard salmon calcitonin, Salmon calcitonin], which “biological potency of the standard, independently determined” value (standard salmon calcitonin used in the assay) is on record?
A: greater than 4,000 IU/mg
